We go through 21 molecules from patent US20110098352A1, “N,N-DISUBSTITUTED AMINOALKYLBIPHENYL ANTAGONISTS OF PROSTAGLANDIN D2 RECEPTORS” (AMIRA PHARMACEUTICALS, INC., priority 2008, published 2011).

Assay [1] addresses T1, human DP1 receptor (Homo sapiens, UniProt Q13258).
T1 construct: tissue Biological Specialty Corporation; host or cells: human platelets, membranes
T1 sequence (Q13258 1-359): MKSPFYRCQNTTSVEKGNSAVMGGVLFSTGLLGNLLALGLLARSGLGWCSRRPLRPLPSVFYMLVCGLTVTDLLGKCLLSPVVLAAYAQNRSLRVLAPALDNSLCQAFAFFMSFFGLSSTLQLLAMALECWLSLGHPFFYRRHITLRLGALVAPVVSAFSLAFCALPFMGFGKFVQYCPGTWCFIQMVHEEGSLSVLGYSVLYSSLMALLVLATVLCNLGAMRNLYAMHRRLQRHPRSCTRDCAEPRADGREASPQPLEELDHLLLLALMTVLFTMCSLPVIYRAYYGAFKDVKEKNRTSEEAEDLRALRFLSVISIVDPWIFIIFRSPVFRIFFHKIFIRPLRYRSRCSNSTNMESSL
Briefly: DP1 radioligand membrane binding assay using [3H]BWA868C. Particulars: [3H]BWA868C binding, human platelet membranes; read-out: hDP1. How it is done: The ability of a compound to bind to the human DP1 receptor was evaluated via a radioligand membrane binding assay using the DP1 selective synthetic ligand [^3H]BWA868C. Packed human platelets (Biological Specialty Corporation), were resuspended in 6 volumes of Hepes/HBSS buffer (10 mM Hepes, 1 mM DTT in Hanks Balanced Salt Solution (HBSS)), lysed and centrifuged at 75,000×g to pellet the membranes. Membranes were resuspended in Hepes/HBSS buffer to approximately 12 mg protein/ml. Membranes (20 μg protein/well) are incubated in 96-well plates with 2 nM [^3H]BWA868C and test compound in Assay Buffer (50 mM Hepes, 10 mM MnCl2, 1 mM EDTA, plus or minus 0.2% human serum albumin, pH 7.4) for 60 minutes at room temperature. The reactions are terminated by rapid filtration through Whatman GF/C glass fibre filter plates. The filter plates were pre-soaked in […] polethylenimine for 30 minutes at room temperature then washed in Wash Buffer (50 mM Hepes, 0.5 M NaCl pH 7.4) prior to harvesting. After harvesting, the filter plates are washed 3 times with 1 ml cold Wash Buffer then dried. Scintillant is then added to the plates and the radioactivity retained on the filters is determined on a Packard TopCount (Perkin Elmer). Specific binding is determined as total radioactive binding minus non-specific binding in the presence of 10 μM BWA868C. IC50s were determined using GraphPad prism analysis of drug titration curves.

Assay [2] concerns the target T2, human DP2 receptor (Homo sapiens, UniProt Q9Y5Y4).
T2 construct: expressed in transfected cells
T2 sequence (Q9Y5Y4 1-395): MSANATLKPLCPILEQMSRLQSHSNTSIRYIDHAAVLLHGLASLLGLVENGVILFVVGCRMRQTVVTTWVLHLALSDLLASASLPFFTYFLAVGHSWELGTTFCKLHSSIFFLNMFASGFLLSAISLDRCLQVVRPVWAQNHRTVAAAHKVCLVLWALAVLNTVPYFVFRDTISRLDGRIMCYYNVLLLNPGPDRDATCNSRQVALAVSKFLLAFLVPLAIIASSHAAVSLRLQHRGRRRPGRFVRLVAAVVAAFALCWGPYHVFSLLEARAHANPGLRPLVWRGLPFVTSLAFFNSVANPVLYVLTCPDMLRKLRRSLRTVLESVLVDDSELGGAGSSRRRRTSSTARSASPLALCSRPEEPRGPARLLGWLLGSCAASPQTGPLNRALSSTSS
Briefly: DP2/CRTH2 radioligand binding assay using [3H]PGD2. The procedure: The ability of a compound to bind to the human DP2 receptor is assessed via a radioligand binding assay using [^3H]PGD2. HEK293 cells stably expressing recombinant human DP2 are resuspended in 10 mM Hepes, 7.4 containing 1 mM DTT, lysed and centrifuged at 75,000×g to pellet the membranes. The membranes are resuspended in 10 mM Hepes, 7.4 containing 1 mM DTT and 10% glycerol to approximately 5 mg protein/ml. Membranes (2-10 μg protein/well) are incubated in 96-well plates with 1 nM [^3H]PGD2 and test compound in Assay Buffer (50 mM Hepes, 10 mM MnCl2, 1 mM EDTA, plus or minus 0.2% human serum albumin, pH 7.4) for 60 minutes at room temperature. The reactions are terminated by rapid filtration through Whatman GF/C glass fibre filter plates. The filter plates were pre-soaked in 0.33% polythylenimine for 30 minutes at room temperature then washed in Wash Buffer (50 mM Hepes, 0.5 M NaCl pH 7.4) prior to harvesting. After harvesting, the filter plates are washed 3 times with 1 ml cold Wash Buffer then dried. Scintillant is then added to the plates and the radioactivity retained on the filters is determined on a Packard TopCount (Perkin Elmer). Specific binding is determined as total radioactive binding minus non-specific binding in the presence of 10 μM PGD2. IC50s were determined using GraphPad prism analysis of drug titration curves.

Where [3] appears, read: [3H]PGD2 binding, membranes of HEK293 cells expressing recombinant human DP2, read-out: hDP2.

SMILES strings stand for the structures. Where two headings read alike, the source gives them in different places.

For `CCN(Cc1cc(C(F)(F)F)ccc1-c1cc(CC(=O)O)ccc1OC)C(=O)OCc1ccccc1` [Compound 1-28, {2′-[(Benzyloxycarbonyl-ethyl-amino)-methyl]-6-methoxy-4′-trifluoromethyl-biphenyl-3-yl}-acetic acid], the IC50 in assay [1] is greater than 1000 nM. Turning to `CCN(Cc1cc(C(F)(F)F)ccc1-c1cc(CC(=O)O)ccc1OC)C(=O)C1CC1` [Compound 1-33, {2′-[(Cyclopropanecarbonyl-ethyl-amino)-methyl]-6-methoxy-4′-trifluoromethyl-biphenyl-3-yl}-acetic acid], the figures for the IC50 in assay [2] and in assay [1] were less than 300 nM and greater than 1000 nM, respectively. With `COc1ccc(CC(=O)O)cc1-c1ccc(C(F)(F)F)cc1CN(C(=O)OCc1ccccc1)C1CCC1` [Compound 1-34, {2′-[(Benzyloxycarbonyl-cyclobutyl-amino)-methyl]-6-methoxy-4′-trifluoromethyl-biphenyl-3-yl}-acetic acid], the IC50 in assay [1] was greater than 1000 nM. For the molecule `COc1ccc(CC(=O)O)cc1-c1ccc(C(F)(F)F)cc1CN(C(=O)OCc1ccccc1)C1CC1` [Compound 1-36, {2′-[(Benzyloxycarbonyl-cyclopropyl-amino)-methyl]-6-methoxy-4′-trifluoromethyl-biphenyl-3-yl}-acetic acid], the IC50 in assay [1] is greater than 1000 nM.

Consider `COc1ccc(CC(=O)O)cc1-c1ccc(C(=O)O)cc1CN(CC(F)(F)F)C(C)=O` [Compound 1-37, 2-{[Acetyl-(2,2,2-trifluoro-ethyl)-amino]-methyl}-5′-carboxymethyl-2′-methoxy-biphenyl-4-carboxylic acid], for which the IC50 in assay [2] (setting [3]) and in assay [1] was greater than 1000 nM each time. Regarding `CCN(Cc1cc(C(F)(F)F)ccc1-c1cc(CC(=O)O)ccc1OC)C(=O)OCc1cc(Cl)cc(Cl)c1` [Compound 1-38, (2′-{[(3,5-Dichloro-benzyloxycarbonyl)-ethyl-amino]-methyl}-6-methoxy-4′-trifluoromethyl-biphenyl-3-yl)-acetic acid], the IC50 in assay [1] is greater than 1000 nM.

With `CCN(Cc1cc(C(F)(F)F)ccc1-c1cc(CC(=O)O)ccc1OC)C(=O)OCc1ccc(F)cc1` [Compound 1-41, (2′-{[Ethyl-(4-fluoro-benzyloxycarbonyl)-amino]-methyl}-6-methoxy-4′-trifluoromethyl-biphenyl-3-yl)-acetic acid], the IC50 in assay [1] was greater than 1000 nM. Take `O=C(O)Cc1ccc(F)c(-c2ccc(C(F)(F)F)cc2CN(CC(F)(F)F)C(=O)OCc2ccccc2)c1` [Compound 1-49, (2′-{[Benzyloxycarbonyl-(2,2,2-trifluoro-ethyl)-amino]-methyl)-6-fluoro-4′-trifluoromethyl-biphenyl-3-yl)-acetic acid]: the IC50 in assay [2] (setting [3]) and in assay [1] was greater than 1000 nM in each case. For the molecule `CCN(Cc1cc(C(F)(F)F)ccc1-c1cccc(CC(=O)O)c1)C(=O)OCc1ccccc1` [Compound 1-143, {2′-[(Benzyloxycarbonyl-ethyl-amino)-methyl]-4′-trifluoromethyl-biphenyl-3-yl}-acetic acid], the IC50 in assay [2] (setting [3]) is less than 300 nM; in assay [1] it was 300 to 1000 nM. As to `CCN(Cc1cc(C(F)(F)F)ccc1-c1cc(CC(=O)O)ccc1OC)C(=O)NCc1ccc(Cl)c(Cl)c1` [Compound 1-152, {2′-[3-(3,4-Dichloro-benzyl)-1-ethyl-ureidomethyl]-6-methoxy-4′-trifluoromethyl-biphenyl-3-yl}-acetic acid], the IC50 is less than 300 nM in assay [2] (setting [3]) and greater than 1000 nM in assay [1]. Take `CCN(Cc1cc(C(F)(F)F)ccc1-c1cc(CC(=O)O)ccc1OC)C(=O)C1CCC1` [Compound 1-206, {2′-[(Cyclobutanecarbonyl-ethyl-amino)-methyl]-6-methoxy-4′-trifluoromethyl-biphenyl-3-yl}-acetic acid]: the IC50 in assay [2] (setting [3]) is less than 300 nM. Take `CCN(Cc1cc(S(C)(=O)=O)ccc1-c1cc(CC(=O)O)ccc1OC)C(=O)OCc1ccccc1` [Compound 1-215, {2′-[(Benzyloxycarbonyl-ethyl-amino)-methyl]-4′-methanesulfonyl-6-methoxy-biphenyl-3-yl}-acetic acid]: in assay [2] (setting [3]), the IC50 was less than 300 nM. `CCN(Cc1cc(C(C)(C)O)ccc1-c1cc(CC(=O)O)ccc1OC)C(=O)OCc1ccccc1` [Compound 1-216, [2′-[(Benzyloxycarbonyl-ethyl-amino)-methyl]-4′-(1-hydroxy-1-methyl-ethyl)-6-methoxy-biphenyl-3-yl]-acetic acid]: the IC50 in assay [2] (setting [3]) is less than 300 nM.

`CCN(Cc1cc(C(=O)O)ccc1-c1cc(CC(=O)O)ccc1OC)C(=O)OCc1ccccc1` [Compound 1-226, 2-[(Benzyloxycarbonyl-ethyl-amino)-methyl]-5′-carboxymethyl-2′-methoxy-biphenyl-4-carboxylic acid]: in assay [2] (setting [3]), the IC50 was less than 300 nM. In the case of `CCN(Cc1cc(SC)ccc1-c1cc(CC(=O)O)ccc1OC)C(=O)C1CC1` [Compound 1-241, {2′-[(Cyclopropanecarbonyl-ethyl-amino)-methyl]-6-methoxy-4′-methylsulfanyl-biphenyl-3-yl}-acetic acid], the IC50 in assay [2] (setting [3]) is less than 300 nM.

Turning to `CCN(Cc1cc(C(F)(F)F)ccc1-c1cccc(CC(=O)O)c1)C(=O)C1CC1` [Compound 1-244, {2′-[(Cyclopropanecarbonyl-ethyl-amino)-methyl]-4′-trifluoromethyl-biphenyl-3-yl}-acetic acid], the IC50 in assay [2] (setting [3]) is less than 300 nM. For `CCN(Cc1cc(C(F)(F)F)ccc1-c1cc(CC(=O)O)ccc1OC)C(=O)C(C)(C)C` [Compound 1-245, (2′-{[(2,2-Dimethyl-propionyl)-ethyl-amino]-methyl}-6-methoxy-4′-trifluoromethyl-biphenyl-3-yl)-acetic acid], the IC50 in assay [2] (setting [3]) was greater than 1000 nM. With `CCN(Cc1cc(Br)ccc1-c1cc(CC(=O)O)ccc1OC)C(=O)C1CC1` [Compound 1-247, {4′-Bromo-2′-[(cyclopropanecarbonyl-ethyl-amino)-methyl]-6-methoxy-biphenyl-3-yl}-acetic acid], the IC50 in assay [2] (setting [3]) is less than 300 nM.

Turning to `CCN(Cc1cc(C(F)(F)F)ccc1-c1cc(CC(=O)O)ccc1OC)C(=O)NCc1ccc(O)cc1` [Compound 1-252, {2′-[1-Ethyl-3-(4-hydroxy-benzyl)-ureidomethyl]-6-methoxy-4′-trifluoromethyl-biphenyl-3-yl}-acetic acid], the IC50 in assay [2] (setting [3]) was less than 300 nM.

For `CCN(Cc1cc(C(F)(F)F)ccc1-c1cc(CC(=O)O)ccc1OC)C(=O)NCc1ccccc1O` [Compound 1-253, {2′-[1-Ethyl-3-(2-hydroxy-benzyl)-ureidomethyl]-6-methoxy-4′-trifluoromethyl-biphenyl-3-yl}-acetic acid], the IC50 in assay [2] (setting [3]) is less than 300 nM.

As for `CCN(Cc1cc(C(F)(F)F)ccc1-c1cc(CC(=O)O)ccc1OC)C(=O)NCc1cccc(O)c1` [Compound 1-257, {2′-[1-Ethyl-3-(3-hydroxy-benzyl)-ureidomethyl]-6-methoxy-4′-trifluoromethyl-biphenyl-3-yl}-acetic acid], the IC50 in assay [2] (setting [3]) is less than 300 nM.
